Target: T1, Nav1.7 (or SCN9A) channel; HEK cells stably transfected with hSCN9A (Homo sapiens, UniProt Q15858)
T1 construct: expressed in transfected cells
Test: Nav1.7 block, PatchXpress 7000 automated whole-cell voltage clamp, estimated IC50 (EIC50)
Assay type: cell-based
Conditions: PatchXpress platform; hSCN9A HEK cells held at V1/2 of inactivation; estimated IC50

T1 sequence (Q15858 whole entry): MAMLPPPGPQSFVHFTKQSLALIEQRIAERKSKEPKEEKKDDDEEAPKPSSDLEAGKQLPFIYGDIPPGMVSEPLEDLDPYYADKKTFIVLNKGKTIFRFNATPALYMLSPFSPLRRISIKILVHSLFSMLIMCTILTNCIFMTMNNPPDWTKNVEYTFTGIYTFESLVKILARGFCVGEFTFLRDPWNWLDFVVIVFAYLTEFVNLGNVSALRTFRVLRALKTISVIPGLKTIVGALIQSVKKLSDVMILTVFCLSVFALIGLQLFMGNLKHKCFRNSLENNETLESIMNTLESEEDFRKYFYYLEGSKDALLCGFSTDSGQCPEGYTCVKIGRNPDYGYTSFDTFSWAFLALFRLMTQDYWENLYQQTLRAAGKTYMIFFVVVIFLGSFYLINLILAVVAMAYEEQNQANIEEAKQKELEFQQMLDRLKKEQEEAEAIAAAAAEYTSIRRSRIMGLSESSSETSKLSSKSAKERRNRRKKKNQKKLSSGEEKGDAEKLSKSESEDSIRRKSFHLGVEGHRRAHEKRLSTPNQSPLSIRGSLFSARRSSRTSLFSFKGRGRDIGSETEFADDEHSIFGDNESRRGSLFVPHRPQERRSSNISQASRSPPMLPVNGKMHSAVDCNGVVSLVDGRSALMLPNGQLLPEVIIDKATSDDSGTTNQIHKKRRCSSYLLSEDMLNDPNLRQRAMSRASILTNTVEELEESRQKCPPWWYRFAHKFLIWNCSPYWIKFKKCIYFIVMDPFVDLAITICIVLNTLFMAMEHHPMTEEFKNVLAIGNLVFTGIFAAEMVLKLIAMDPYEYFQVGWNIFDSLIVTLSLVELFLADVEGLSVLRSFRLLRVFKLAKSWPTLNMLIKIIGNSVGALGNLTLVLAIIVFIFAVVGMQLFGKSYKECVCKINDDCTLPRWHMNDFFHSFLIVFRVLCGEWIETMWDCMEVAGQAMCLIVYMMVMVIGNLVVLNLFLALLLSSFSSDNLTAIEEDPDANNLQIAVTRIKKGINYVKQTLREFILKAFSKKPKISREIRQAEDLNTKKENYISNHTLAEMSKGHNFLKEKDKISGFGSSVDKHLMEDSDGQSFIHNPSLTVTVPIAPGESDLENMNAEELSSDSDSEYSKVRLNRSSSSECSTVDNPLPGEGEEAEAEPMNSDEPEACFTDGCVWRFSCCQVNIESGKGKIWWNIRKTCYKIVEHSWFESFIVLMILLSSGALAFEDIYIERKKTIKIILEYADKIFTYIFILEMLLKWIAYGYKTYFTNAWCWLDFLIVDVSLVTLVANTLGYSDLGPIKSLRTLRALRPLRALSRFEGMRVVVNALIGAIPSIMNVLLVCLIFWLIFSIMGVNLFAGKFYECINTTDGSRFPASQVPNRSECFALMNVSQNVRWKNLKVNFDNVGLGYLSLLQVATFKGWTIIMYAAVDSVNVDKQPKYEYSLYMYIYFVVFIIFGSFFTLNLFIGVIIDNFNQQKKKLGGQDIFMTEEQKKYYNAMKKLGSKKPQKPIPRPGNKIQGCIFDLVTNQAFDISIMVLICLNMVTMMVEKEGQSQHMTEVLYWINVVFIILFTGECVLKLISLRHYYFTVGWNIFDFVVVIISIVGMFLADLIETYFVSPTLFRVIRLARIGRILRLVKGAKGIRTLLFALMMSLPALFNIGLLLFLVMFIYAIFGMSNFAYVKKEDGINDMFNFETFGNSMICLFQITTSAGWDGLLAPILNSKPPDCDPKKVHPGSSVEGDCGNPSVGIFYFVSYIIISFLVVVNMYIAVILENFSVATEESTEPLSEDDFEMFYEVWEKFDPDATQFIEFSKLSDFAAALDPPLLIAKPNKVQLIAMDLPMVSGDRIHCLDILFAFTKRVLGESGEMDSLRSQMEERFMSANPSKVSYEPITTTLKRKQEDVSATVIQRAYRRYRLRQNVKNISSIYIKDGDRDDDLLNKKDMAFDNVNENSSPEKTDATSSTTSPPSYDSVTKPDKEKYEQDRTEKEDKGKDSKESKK

Row | Structure (SMILES) | IC50
1 | N#Cc1cc(S(=O)(=O)Nc2nccs2)ccc1Oc1ccc(-c2cc[nH]n2)cc1F [Example 185, 3-cyano-4-[2-fluoro-4-(1H-pyrazol-3-yl)-phenoxy]-N-thiazol-2-yl-benzenesulfonamide] | 33 µM
2 | Cc1cc(C)n(-c2ccc(Oc3ccc(S(=O)(=O)Nc4nccs4)cc3C#N)cc2)n1 [Example 186, 3-cyano-4-[4-(3,5-dimethyl-pyrazol-1-yl)-phenoxy]-N-thiazol-2-yl-benzenesulfonamide] | 1.05 µM
3 | N#Cc1cc(S(=O)(=O)Nc2nccs2)ccc1Oc1ccc(-c2ccccc2)cc1 [Example 187, 4-(biphenyl-4-yloxy)-3-cyano-N-thiazol-2-yl-benzenesulfonamide] | 1.67 µM
4 | N#Cc1cc(S(=O)(=O)Nc2nccs2)ccc1Oc1cc(-c2ccccc2F)nn1CC(F)(F)F [Example 188, 3-cyano-4-[5-(2-fluoro-phenyl)-2-(2,2,2-trifluoro-ethyl)-2H-pyrazol-3-yloxy]-N-thiazol-2-yl-benzenesulfonamide] | 9.42 µM
5 | N#Cc1cc(S(=O)(=O)Nc2nccs2)ccc1Oc1cc(-c2ccc(Cl)cc2)nn1CC(F)(F)F [Example 189, 4-[5-(4-chloro-phenyl)-2-(2,2,2-trifluoro-ethyl)-2H-pyrazol-3-yloxy]-3-cyano-N-thiazol-2-yl-benzenesulfonamide] | 2.8 µM
6 | N#Cc1cc(S(=O)(=O)Nc2nccs2)ccc1Oc1cc(-c2ccccc2)nn1CC(F)(F)F [Example 190, 3-cyano-4-[5-phenyl-2-(2,2,2-trifluoro-ethyl)-2H-pyrazol-3-yloxy]-N-thiazol-2-yl-benzenesulfonamide] | 7.71 µM
7 | N#Cc1cc(S(=O)(=O)Nc2nccs2)ccc1Oc1cc(C2CC2)nn1-c1ccccn1 [Example 191, 3-cyano-4-(5-cyclopropyl-2-pyridin-2-yl-2H-pyrazol-3-yloxy)-N-thiazol-2-yl-benzenesulfonamide] | >10 µM
8 | N#Cc1cc(S(=O)(=O)Nc2nccs2)ccc1Oc1cc(C2CC2)nn1C1CCCCC1 [Example 192, 3-Cyano-4-(2-cyclohexyl-5-cyclopropyl-2H-pyrazol-3-yloxy)-N-thiazol-2-yl-benzenesulfonamide] | 2.05 µM
9 | N#Cc1cc(S(=O)(=O)Nc2nccs2)ccc1Oc1cc(C2CC2)nn1-c1ccccc1F [Example 193, 3-cyano-4-[5-cyclopropyl-2-(2-fluoro-phenyl)-2H-pyrazol-3-yloxy]-N-thiazol-2-yl-benzenesulfonamide] | 1.23 µM
10 | N#Cc1cc(S(=O)(=O)Nc2nccs2)ccc1Oc1cc(C2CC2)nn1CC(F)(F)F [Example 194, 3-Cyano-4-[5-cyclopropyl-2-(2,2,2-trifluoro-ethyl)-2H-pyrazol-3-yloxy]-N-thiazol-2-yl-benzenesulfonamide] | 36.9 µM
11 | N#Cc1cc(S(=O)(=O)Nc2nccs2)ccc1Oc1cc(C2CC2)nn1-c1cc(F)ccc1F [Example 195, 3-Cyano-4-[5-cyclopropyl-2-(2,5-difluoro-phenyl)-2H-pyrazol-3-yloxy]-N-thiazol-2-yl-benzenesulfonamide] | 1.08 µM
12 | Cn1ncc(F)c1-c1cc(Cl)ccc1Oc1ccc(S(=O)(=O)Nc2nccs2)cc1C#N [Example 196, 4-[4-Chloro-2-(4-fluoro-2-methyl-2H-pyrazol-3-yl)-phenoxy]-3-cyano-N-thiazol-2-yl-benzenesulfonamide] | 0.03 µM
13 | Cc1c(Cl)ccc(Oc2ccc(S(=O)(=O)Nc3nccs3)cc2C#N)c1-c1nnco1 [Example 197, 4-(4-chloro-3-methyl-2-[1,3,4]oxadiazol-2-yl-phenoxy)-3-cyano-N-thiazol-2-yl-benzenesulfonamide] | 1.13 µM
14 | CC(C)(C)n1nccc1-c1c(Cl)cccc1Oc1ccc(S(=O)(=O)Nc2nccs2)cc1C#N [Example 198, 4-[2-(2-tert-butyl-2H-pyrazol-3-yl)-3-chloro-phenoxy]-3-cyano-N-thiazol-2-yl-benzenesulfonamide] | 2.47 µM
15 | N#Cc1cc(S(=O)(=O)Nc2nccs2)ccc1Oc1cccc(Cl)c1-c1ccn[nH]1 [Example 199, 4-[3-chloro-2-(2H-pyrazol-3-yl)-phenoxy]-3-cyano-N-thiazol-2-yl-benzenesulfonamide] | 0.11 µM
16 | Cc1n[nH]cc1-c1ccccc1Oc1ccc(S(=O)(=O)Nc2nccs2)cc1C#N [Example 200, 3-cyano-4-(2-(3-methyl-1H-pyrazol-4-yl)phenoxy)-N-(thiazol-2-yl)benzenesulfonamide] | 0.1 µM
17 | N#Cc1cc(S(=O)(=O)Nc2nccs2)ccc1Oc1ccc(F)cc1-c1ccc(CCO)cc1 [Example 201, 3-cyano-4-{[5-fluoro-4′-(2-hydroxyethyl)biphenyl-2-yl]oxy}-N-1,3-thiazol-2-ylbenzenesulfonamide] | 0.42 µM
18 | N#Cc1cc(S(=O)(=O)Nc2nccs2)ccc1Oc1ccc(-c2cc(C(F)(F)F)n[nH]2)cc1 [Example 202, 3-cyano-N-thiazol-2-yl-4-[4-(5-trifluoromethyl-2H-pyrazol-3-yl)-phenoxy]-benzenesulfonamide] | 0.6 µM
19 | NC(=O)c1cc(S(=O)(=O)Nc2nccs2)ccc1Oc1ccc(-c2cc(C(F)(F)F)n[nH]2)cc1 [Example 203, 5-(N-thiazol-2-ylsulfamoyl)-2-(4-(3-(trifluoromethyl)-1H-pyrazol-5-yl)phenoxy)benzamide] | 7.48 µM
20 | O=S(=O)(Nc1ncns1)c1ccc(Oc2ccn(Cc3ccc(Cl)cc3)n2)c(C(F)(F)F)c1 [Example 204, 4-{[1-(4-chlorobenzyl)-1H-pyrazol-3-yl]oxy}-N-1,2,4-thiadiazol-5-yl-3-(trifluoromethyl)benzenesulfonamide] | 3.14 µM
21 | O=S(=O)(Nc1ncns1)c1ccc(Oc2ccccc2-c2ccccc2)c(C(F)(F)F)c1 [Example 205, 4-(biphenyl-2-yloxy)-N-1,2,4-thiadiazol-5-yl-3-(trifluoromethyl)benzenesulfonamide] | 0.33 µM
22 | O=S(=O)(Nc1nccs1)c1ccc(Oc2cnn(Cc3ccc(Cl)cc3)c2)cc1F [Example 206, 4-(1-(4-chlorobenzyl)-1H-pyrazol-4-yloxy)-2-fluoro-N-(thiazol-2-yl)benzenesulfonamide] | 1.19 µM
23 | COc1ccccc1-c1ccccc1Oc1ccc(S(=O)(=O)Nc2nccs2)c(F)c1 [Example 207, 2-fluoro-4-(2′-methoxybiphenyl-2-yloxy)-N-(thiazol-2-yl)benzenesulfonamide] | 1.03 µM
24 | COc1ccccc1-c1ccccc1Oc1ccc(S(=O)(=O)Nc2nccs2)c(F)c1 [Example 208, 2-fluoro-4-(2′-methoxybiphenyl-2-yloxy)-N-(thiazol-2-yl)benzenesulfonamide] | 0.13 µM
25 | O=S(=O)(Nc1nccs1)c1ccc(Oc2ccc(-c3ccccc3)cc2)cc1F [Example 209, 4-(biphenyl-4-yloxy)-2-fluoro-N-(thiazol-2-yl)benzenesulfonamide] | 0.59 µM
26 | O=S(=O)(Nc1nccs1)c1ccc(Oc2cccc(-c3ccccc3)c2)cc1F [Example 210, 4-(biphenyl-3-yloxy)-2-fluoro-N-(thiazol-2-yl)benzenesulfonamide] | 1.37 µM
27 | O=S(=O)(Nc1nccs1)c1ccc(Oc2ccc(Cl)cc2-c2ccnn2-c2ccccc2)cc1F [Example 211, 4-(4-chloro-2-(1-phenyl-1H-pyrazol-5-yl)phenoxy)-2-fluoro-N-(thiazol-2-yl)benzenesulfonamide] | 0.11 µM

From patent publication US8541588B2, “Sulfonamide derivatives” (Pfizer Limited, priority 2009, dated 2013)
